From patent US20210247386A1, “A DEVICE AND METHOD FOR DETERMINING CELL INDENTATION ACTIVITY” (TECHNION RESEARCH & DEVELOPMENT FOUNDATION LIMITED, priority 2018, published 2021)
“Also recorded” adds a separate entry of the source.

Experiments:
[1] = system: pancreatic cancer cell lines; experiment: Gel indentation assay of pancreatic cancer cell lines on PAM gel after Taxol treatment; type: cell-based, human; conditions: Taxol 25 μM for 1-2 hr, PAM gel with Young's modulus 2.4 kPa, versus untreated cells
Description: (§1) The inventors used various commercially- or otherwise-available, human, epithelial breast and pancreatic cancer and benign cell lines (all from ATCC, Manassas, Va.). For breast cancer cells, the inventors used three cell lines: high metastatic potential (MP, MDA-MB-231) and low MP (MDA-MB-468) breast cancer cells that had been collected from lung metastases, and benign fibrocystic cells (MCF-10A) as control. In addition, the inventors used a high MP breast cancer LM2-4 cell-line that was developed by collecting twice metastasized cells from the human MDA-MB-231 cell line after being seeded in mice. […]
(§2) The inventors seeded 3×10^5 cells on each gel within the respective media, resulting in an average of 25±5 cells per field-of-view (area of 0.016 mm^2). […] The focal depth of each image was recorded independently during the experiment, following manual focusing, using an automated, computer-controlled microscope stage. […]
(§3) At each measurement time-point, locations on the gel were randomly chosen and at least 3 images were taken: (i) a DIC image of the cells on the gel, (ii) a fluorescence image of the particles embedded at the focal plane of the gel surface, and (iii) a series of fluorescence images at the lowest focal depth where particles were observed, to identify each indenting cells' depth. […]

[2] = system: breast cancer cell lines; experiment: Gel indentation assay of breast cancer cell lines on PAM gel after Taxol treatment; type: cell-based, human; conditions: Taxol 25 μM for 1-2 hr, PAM gel with Young's modulus 2.4 kPa, versus untreated cells
Description: as §1, §2, §3

CC(=O)O[C@H]1C(=O)[C@@]2(C)[C@H]([C@H](OC(=O)c3ccccc3)[C@]3(O)C[C@H](OC(=O)[C@H](O)[C@@H](NC(=O)c4ccccc4)c4ccccc4)C(C)=C1C3(C)C)[C@]1(OC(C)=O)CO[C@@H]1C[C@@H]2O [Taxol, Paclitaxel]
reduction; also recorded: reduced: attained indentation depths [1] | percentage of indenting cells [1] | attained indentation depths [2] | percentage of indenting cells [2]
